{"source": "patent US6620831B2", "about": "“Indazoles substituted with 1,1-dioxoisothiazolidine useful as inhibitors of cell proliferation” (LG Life Sciences Ltd., priority 2000, dated 2003)", "data": [{"target": "T1, CDK2/cyclin A (Homo sapiens, UniProt P24941)", "T1 construct": "made in house; host or cells: insect ('worm') cells co-infected with baculoviruses", "assay": "CDK2 inhibitory activity (CDK2/cyclin A, [gamma-32P] ATP, histon H1 or Rb protein substrate)", "format": "biochemical", "conditions": "first IC50 column (c1) of Table 1", "source_text": "CDK2 enzyme was obtained from either extract from the worm cell co-infected with baculovirus which expresses a CDK2 gene and baculovirus which expresses a cyclin A gene, or active enzyme purified therefrom. CDK4 was also obtained from either extract from the worm cell co-infected with baculovirus which expresses a CDK4 gene and baculovirus which expresses a cyclin D1 gene. As substrates, histon H1 or Rb protein was used for CDK2, and Rb protein for CDK4. The radioactive activities in substrates were determined by reacting compounds diluted with each concentration with a proper quantity of CDK2/cyclin A or CDK4/cyclin D1 and substrate protein, and [gamma-32P labeled] ATP, and then separating the substrates.\nInhibitory abilities of inhibitors according to the present invention for each enzyme activity were expressed as IC50 values, which were determined in accordance with the method as described above.", "units": {"IC50": "nM"}, "values": [{"smiles": "O=C(Cc1ccc(-c2ccsc2)cc1)Nc1n[nH]c2ccc(N3CCCS3(=O)=O)cc12", "note": "[Compound 36, N-[5-(1,1-dioxo-1λ^6-isothiazolidin-2-yl)-1H-indazol-3-yl]-2-[4-(3-thienyl)phenyl]acetamide]", "IC50": "< 50"}, {"smiles": "O=C(Cc1ccc(-c2ccncc2)cc1)Nc1n[nH]c2ccc(N3CCCS3(=O)=O)cc12", "note": "[Compound 33, N-[5-(1,1-dioxo-1λ^6-isothiazolidin-2-yl)-1H-indazol-3-yl]-2-[4-(4-pyridinyl)phenyl]acetamide]", "IC50": "< 50"}, {"smiles": "O=C(Cc1ccc([N+](=O)[O-])cc1)Nc1n[nH]c2ccc(N3CCCS3(=O)=O)cc12", "note": "[Compound 45, N-[5-(1,1-dioxo-1λ^6-isothiazolidin-2-yl)-1H-indazol-3-yl]-2-(4-nitrophenyl)acetamide]", "IC50": "< 50"}, {"smiles": "CCN(CC)c1cccc(CC(=O)Nc2n[nH]c3ccc(N4CCCS4(=O)=O)cc23)c1", "note": "[Compound 70, 2-[3-(diethylamino)phenyl]-N-[5-(1,1-dioxo-1λ^6-isothiazolidin-2-yl)-1H-indazol-3-yl]acetamide]", "IC50": "< 500"}, {"smiles": "O=C(Cn1cnc2ccccc21)Nc1n[nH]c2ccc(N3CCCS3(=O)=O)cc12", "note": "[Compound 41, 2-(1H-benzimidazol-1-yl)-N-[5-(1,1-dioxo-1λ^6-isothiazolidin-2-yl)-1H-indazol-3-yl]acetamide]", "IC50": "< 50"}, {"smiles": "O=S1(=O)CCCN1c1ccc2[nH]nc(NC(=S)Cc3ccccc3)c2c1", "note": "[Compound 13, N-[5-(1,1-dioxo-1λ^6-isothiazolidin-2-yl)-1H-indazol-3-yl]-2-phenylethanethioamide]", "IC50": "< 10000"}, {"smiles": "O=C(Cc1ccc2c(c1)OCO2)Nc1n[nH]c2ccc(N3CCCS3(=O)=O)cc12", "note": "[Compound 15, 2-(1,3-benzodioxol-5-yl)-N-[5-(1,1-dioxo-1λ^6-isothiazolidin-2-yl)-1H-indazole-3-yl]acetamide]", "IC50": "< 50"}, {"smiles": "CCNc1ccc(CC(=O)Nc2n[nH]c3ccc(N4CCCS4(=O)=O)cc23)cc1", "note": "[Compound 72, N-[5-(1,1-dioxo-1λ^6-isothiazolidin-2-yl)-1H-indazol-3-yl]-2-[4-(ethylamino)phenyl]acetamide]", "IC50": "< 50"}, {"smiles": "O=C(Cc1ccc(Cl)cc1)Nc1n[nH]c2ccc(N3CCCS3(=O)=O)cc12", "note": "[Compound 8, 2-(4-chlorophenyl)-N-[5-(1,1-dioxo-1λ^6-isothiazolidin-2-yl)-1H-indazol-3-yl]acetamide]", "IC50": "< 50"}, {"smiles": "O=C(Cc1ccccc1)Nc1n[nH]c2ccc(N3CCCS3(=O)=O)cc12", "note": "[Compound 1, N-[5-(1,1-dioxo-1λ^6-isothiazolidin-2-yl)-1H-indazol-3-yl]-2-phenylacetamide]", "IC50": "< 50"}, {"smiles": "O=C(Cc1cccc(Br)c1)Nc1n[nH]c2ccc(N3CCCS3(=O)=O)cc12", "note": "[Compound 11, 2-(3-bromophenyl)-N-[5-(1,1-dioxo-1λ^6-isothiazolidin-2-yl)-1H-indazol-3-yl]acetamide]", "IC50": "< 50"}, {"smiles": "Nc1ccc(CC(=O)Nc2n[nH]c3ccc(N4CCCS4(=O)=O)cc23)cc1", "note": "[Compound 7, 2-(4-aminophenyl)-N-[5-(1,1-dioxo-1λ^6-isothiazolidin-2-yl)-1H-indazol-3-yl]acetamide]", "IC50": "< 50"}, {"smiles": "O=C(Cc1ccc(CN2CCOCC2)cc1)Nc1n[nH]c2ccc(N3CCCS3(=O)=O)cc12", "note": "[Compound 43, N-[5-(1,1-dioxo-1λ^6-isothiazolidin-2-yl)-1H-indazol-3-yl]-2-[4-(4-morpholinylmethyl)phenyl]acetamide]", "IC50": "< 100"}, {"smiles": "CCOCCOCCOc1ccc(CC(=O)Nc2n[nH]c3ccc(N4CCCS4(=O)=O)cc23)cc1", "note": "[Compound 59, N-[5-(1,1-dioxo-1λ^6-isothiazolidin-2-yl)-1H-indazol-3-yl]-2-4-[2-(2-ethoxyethoxy)ethoxy]phenylacetamide]", "IC50": "< 100"}, {"smiles": "COc1ccc(CC(=O)Nc2n[nH]c3ccc(N4CCCS4(=O)=O)cc23)cc1", "note": "[Compound 38, N-[5-(1,1-dioxo-1λ^6-isothiazolidin-2-yl)-1H-indazol-3-yl]-2-(4-methoxyphenyl)acetamide]", "IC50": "< 100"}, {"smiles": "COc1ccc(N2CCN(CC(=O)Nc3n[nH]c4ccc(N5CCCS5(=O)=O)cc34)CC2)cc1", "note": "[Compound 51, N-[5-(1,1-dioxo-1λ^6-isothiazolidin-2-yl)-1H-indazol-3-yl]-2-[4-(4-methoxyphenyl)-1-piperazinyl]acetamide]", "IC50": "< 10000"}, {"smiles": "CC(=O)Nc1nc(CC(=O)Nc2n[nH]c3ccc(N4CCCS4(=O)=O)cc23)cs1", "note": "[Compound 76]", "IC50": "< 10000"}, {"smiles": "Cc1ccccc1CC(=O)Nc1n[nH]c2ccc(N3CCCS3(=O)=O)cc12", "note": "[Compound 68, N-[5-(1,1-dioxo-1λ^6-isothiazolidin-2-yl)-1H-indazol-3-yl]-2-(2-methylphenyl)acetamide]", "IC50": "< 100"}, {"smiles": "O=C(Nc1n[nH]c2ccc(N3CCCS3(=O)=O)cc12)C(c1ccccc1)C1CCCC1", "note": "(stereo not drawn) [Compound 56, 2-cyclopentyl-N-[5-(1,1-dioxo-1λ^6-isothiazolidin-2-yl)-1H-indazol-3-yl]-2-phenylacetamide]", "IC50": "< 100000"}, {"smiles": "CCOc1ccc(CC(=O)Nc2n[nH]c3ccc(N4CCCS4(=O)=O)cc23)cc1S(N)(=O)=O", "note": "[Compound 80, 2-[3-(aminosulfonyl)-4-ethoxyphenyl]-N-[5-(1,1-dioxo-1λ^6-isothiazolidin-2-yl)-1H-indazol-3-yl]acetamide]", "IC50": "< 1000"}, {"smiles": "CCN(CC)c1nc(CC(=O)Nc2n[nH]c3ccc(N4CCCS4(=O)=O)cc23)cs1", "note": "[Compound 65, 2-[2-(diethylamino)-1,3-thiazol-4-yl]-N-[5-(1,1-dioxo-1λ^6-isothiazolidin-2-yl)-1H-indazol-3-yl]acetamide]", "IC50": "< 500"}, {"smiles": "O=C(Cc1ccc(Oc2ccccc2)cc1)Nc1n[nH]c2ccc(N3CCCS3(=O)=O)cc12", "note": "[Compound 54, N-[5-(1,1-dioxo-1λ^6-isothiazolidin-2-yl)-1H-indazol-3-yl]-2-(4-phenoxyphenyl)acetamide]", "IC50": "< 100"}, {"smiles": "O=C(Cc1ccc(-c2ccccc2)cc1)Nc1n[nH]c2ccc(N3CCCS3(=O)=O)cc12", "note": "[Compound 10, 2-[1,1′-biphenyl]-4-yl-N-[5-(1,1-dioxo-1λ^6-isothiazolidin-2-yl)-1H-indazol-3-yl]acetamide]", "IC50": "< 50"}, {"smiles": "O=C(Cc1ccc(N(Cc2ccccc2)Cc2ccccc2)cc1)Nc1n[nH]c2ccc(N3CCCS3(=O)=O)cc12", "note": "[Compound 5, 2-[4-(dibenzylamino)phenyl]-N-[5-(1,1-dioxo-1λ^6-isothiazolidin-2-yl)-1H-indazol-3-yl]acetamide]", "IC50": "< 500"}, {"smiles": "O=C(Cc1ccc(Cl)c(Cl)c1)Nc1n[nH]c2ccc(N3CCCS3(=O)=O)cc12", "note": "[Compound 24, 2-(3,4-dichlorophenyl)-N-[5-(1,1-dioxo-1λ^6-isothiazolidin-2-yl)-1H-indazol-3-yl]acetamide]", "IC50": "< 50"}, {"smiles": "CCOc1ccc(CC(=O)Nc2n[nH]c3ccc(N4CCCS4(=O)=O)cc23)cc1S(=O)(=O)N1CCN(C)CC1", "note": "[Compound 81, N-[5-(1,1-dioxo-1λ^6-isothiazolidin-2-yl)-1H-indazol-3-yl]-2-4-ethoxy-3-[(4-methyl-1-piperazinyl)sulfonyl]phenylacetamide]", "IC50": "< 1000"}, {"smiles": "CC(=O)c1ccc(N2CCN(CC(=O)Nc3n[nH]c4ccc(N5CCCS5(=O)=O)cc34)CC2)cc1", "note": "[Compound 53, 2-[4-(4-acetylphenyl)-1-piperazinyl]-N-[5-(1,1-dioxo-1λ^6-isothiazolidin-2-yl)-1H-indazol-3-yl]acetamide]", "IC50": "< 10000"}, {"smiles": "CCN(CC)c1ccc(CC(=O)Nc2n[nH]c3ccc(N4CCCS4(=O)=O)cc23)cc1", "note": "[Compound 73, 2-[4-(diethylamino)phenyl]-N-[5-(1,1-dioxo-1λ^6-isothiazolidin-2-yl)-1H-indazol-3-yl]acetamide]", "IC50": "< 50"}, {"smiles": "O=C(Cn1cnc(-c2ccc(-c3ccccc3)cc2)c1)Nc1n[nH]c2ccc(N3CCCS3(=O)=O)cc12", "note": "[Compound 63, 2-(4-[1,1′-biphenyl]-4-yl-1H-imidazol-1-yl)-N-[5-(1,1-dioxo-1λ^6-isothiazolidin-2-yl)-1H-indazol-3-yl]acetamide]", "IC50": "< 500"}, {"smiles": "O=C(Cc1cccc2ccccc12)Nc1n[nH]c2ccc(N3CCCS3(=O)=O)cc12", "note": "[Compound 16, N-[5-(1,1-dioxo-1λ^6-isothiazolidin-2-yl)-1H-indazol-3-yl]-2-(1-naphthyl)acetamide]", "IC50": "< 50"}, {"smiles": "Cc1ccc(CC(=O)Nc2n[nH]c3ccc(N4CCCS4(=O)=O)cc23)cc1", "note": "[Compound 28, N-[5-(1,1-dioxo-1λ^6-isothiazolidin-2-yl)-1H-indazol-3-yl]-2-(4-methylphenyl)acetamide]", "IC50": "< 50"}, {"smiles": "O=C(Cc1ccc(Br)cc1)Nc1n[nH]c2ccc(N3CCCS3(=O)=O)cc12", "note": "[Compound 12, 2-(4-bromophenyl)-N-[5-(1,1-dioxo-1λ^6-isothiazolidin-2-yl)-1H-indazol-3-yl]acetamide]", "IC50": "< 50"}, {"smiles": "CNc1ccc(CC(=O)Nc2n[nH]c3ccc(N4CCCS4(=O)=O)cc23)cc1", "note": "[Compound 6, N-[5-(1,1-dioxo-1λ^6-isothiazolidin-2-yl)-1H-indazol-3-yl]-2-[4-(methylamino)phenyl]acetamide]", "IC50": "< 50"}, {"smiles": "CC(=O)Nc1n[nH]c2ccc(N3CCCS3(=O)=O)cc12", "note": "[Compound 19, N-[5-(1,1-dioxo-1λ^6-isothiazolidin-2-yl)-1H-indazol-3-yl]acetamide]", "IC50": "> 100000"}, {"smiles": "O=C(Cn1cnc(-c2ccc3ccccc3c2)c1)Nc1n[nH]c2ccc(N3CCCS3(=O)=O)cc12", "note": "[Compound 62, N-[5-(1,1-dioxo-1λ^6-isothiazolidin-2-yl)-1H-indazol-3-yl]-2-[4-(2-naphthyl)-1H-imidazol-1-yl]acetamide]", "IC50": "< 50"}, {"smiles": "CCC(C(=O)Nc1n[nH]c2ccc(N3CCCS3(=O)=O)cc12)c1ccccc1", "note": "(stereo not drawn) [Compound 57, N-[5-(1,1-dioxo-1λ^6-isothiazolidin-2-yl)-1H-indazol-3-yl]-2-phenylbutanamide]", "IC50": "< 100000"}]}]}
